Test results as given in patent publication US20060040312A1 (priority 1999, published 2006).
Several values for one entry are separate records, joined by “and”; a condition that tells them apart may be missing. Equal values may be shown once. Entries after “also recorded” stand apart in the source; their conditions may differ. Positions of bridges follow the written chain, without caps; N, C: chain ends. Non-standard residues stand in square brackets, D forms with d. Residues, ends and D or L forms follow the SMILES beside them. Hyp = O=C(O)[C@@H]1C[C@@H](O)CN1

Key:
[1] = system: primary cultures of cortex; type: cell-based, rat
Kv1.3 = target: T1, Kv1.3 (Homo sapiens, UniProt P22001); conditions: cited from earlier work
T1 construct: host or cells: oocytes

F425G Shaker mutation = F425G Shaker mutation (Drosophila melanogaster, UniProt P08510, F425G); conditions: cited from earlier work
[2] = system: primary cultures of cortical neurons; type: cell-based, rat
[3] = system: primary cultures of cortex; type: cell-based, rat; remark: listed apart in the source
Kv1.4 = Kv1.4 (Homo sapiens, UniProt P22459); conditions: cited from earlier work
[4] = system: cardiac ventricular myocytes; type: cell-based, rat
[5] = system: histamine-contracted, isolated Guinea pig tracheal segments
cortex = type: cell-based, rat
[6] = system: primary cultures of cortex; type: cell-based, rat; remark: listed apart in the source
[7] = system: single tracheal, neuronal or myocyte cells; type: cell-based, rat
Kv1.1 = target: T2, Kv1.1 (Homo sapiens, UniProt Q09470); conditions: cited from earlier work
T2 construct: host or cells: oocytes

[8] = system: primary cortical cultures
[9] = rat, in vivo, iv
cardiac myocytes = type: cell-based, rat
[10] = target: Shaker H4 potassium channel (Drosophila melanogaster, UniProt P08510); conditions: cited from earlier work
trachea = type: cell-based, rat
[11] = system: primary cultures of cortex
[12] = system: primary cultures of ventricular myocytes
[13] = system: primary cultures of ventricular myocytes; type: cell-based, rat

T2 sequence (Q09470 whole entry): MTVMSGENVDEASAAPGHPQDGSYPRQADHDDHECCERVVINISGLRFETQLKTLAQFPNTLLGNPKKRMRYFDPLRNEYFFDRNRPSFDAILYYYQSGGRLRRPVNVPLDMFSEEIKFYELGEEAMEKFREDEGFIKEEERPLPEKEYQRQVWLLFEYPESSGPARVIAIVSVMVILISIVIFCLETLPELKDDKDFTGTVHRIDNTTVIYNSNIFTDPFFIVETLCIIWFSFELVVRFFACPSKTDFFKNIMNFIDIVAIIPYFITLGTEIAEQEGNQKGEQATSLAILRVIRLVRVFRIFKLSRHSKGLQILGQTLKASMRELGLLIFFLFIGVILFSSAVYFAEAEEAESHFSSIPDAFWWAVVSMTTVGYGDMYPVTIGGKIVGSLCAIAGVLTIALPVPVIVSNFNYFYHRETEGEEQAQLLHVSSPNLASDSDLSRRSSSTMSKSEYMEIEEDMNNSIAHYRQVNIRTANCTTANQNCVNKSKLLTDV
Sequence of F425G Shaker mutation (P08510 whole entry F425G): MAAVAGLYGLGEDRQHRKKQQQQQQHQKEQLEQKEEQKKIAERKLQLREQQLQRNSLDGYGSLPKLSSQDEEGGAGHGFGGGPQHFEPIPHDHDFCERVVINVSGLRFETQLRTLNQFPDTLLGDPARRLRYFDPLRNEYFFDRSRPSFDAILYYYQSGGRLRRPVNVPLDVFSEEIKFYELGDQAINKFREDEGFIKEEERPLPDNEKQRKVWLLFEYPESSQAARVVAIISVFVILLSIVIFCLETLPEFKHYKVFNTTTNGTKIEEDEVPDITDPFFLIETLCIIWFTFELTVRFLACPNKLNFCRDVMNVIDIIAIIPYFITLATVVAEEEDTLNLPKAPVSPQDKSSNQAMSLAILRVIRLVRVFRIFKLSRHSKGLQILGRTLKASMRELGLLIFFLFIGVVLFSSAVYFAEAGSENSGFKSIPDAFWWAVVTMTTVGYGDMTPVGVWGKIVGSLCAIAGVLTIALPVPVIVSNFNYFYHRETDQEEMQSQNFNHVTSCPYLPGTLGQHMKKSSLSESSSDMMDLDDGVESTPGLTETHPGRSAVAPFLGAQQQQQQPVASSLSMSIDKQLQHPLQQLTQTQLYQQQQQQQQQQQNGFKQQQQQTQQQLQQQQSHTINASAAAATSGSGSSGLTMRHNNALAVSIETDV
Sequence of Shaker H4 potassium channel (P08510 whole entry): as the sequence (P08510 whole entry F425G) above, with G425F counted along it
Sequence of Kv1.4 (P22459 whole entry): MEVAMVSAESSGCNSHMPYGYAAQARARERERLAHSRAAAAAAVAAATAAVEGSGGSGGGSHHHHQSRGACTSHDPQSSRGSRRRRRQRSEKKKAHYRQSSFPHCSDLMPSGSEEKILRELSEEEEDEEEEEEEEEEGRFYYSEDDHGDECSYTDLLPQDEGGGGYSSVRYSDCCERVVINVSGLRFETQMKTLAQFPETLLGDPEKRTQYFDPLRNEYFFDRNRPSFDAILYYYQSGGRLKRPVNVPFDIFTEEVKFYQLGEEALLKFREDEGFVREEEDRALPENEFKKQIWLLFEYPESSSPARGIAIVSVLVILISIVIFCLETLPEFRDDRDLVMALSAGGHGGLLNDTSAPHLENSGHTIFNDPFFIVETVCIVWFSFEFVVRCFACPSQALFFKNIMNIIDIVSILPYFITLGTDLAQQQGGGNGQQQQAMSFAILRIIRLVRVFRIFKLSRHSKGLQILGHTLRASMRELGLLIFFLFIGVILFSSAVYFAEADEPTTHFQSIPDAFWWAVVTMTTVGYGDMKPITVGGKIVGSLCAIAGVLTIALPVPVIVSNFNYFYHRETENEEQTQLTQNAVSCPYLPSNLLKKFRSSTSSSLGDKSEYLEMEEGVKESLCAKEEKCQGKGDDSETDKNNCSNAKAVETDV
T1 sequence (P22001 whole entry): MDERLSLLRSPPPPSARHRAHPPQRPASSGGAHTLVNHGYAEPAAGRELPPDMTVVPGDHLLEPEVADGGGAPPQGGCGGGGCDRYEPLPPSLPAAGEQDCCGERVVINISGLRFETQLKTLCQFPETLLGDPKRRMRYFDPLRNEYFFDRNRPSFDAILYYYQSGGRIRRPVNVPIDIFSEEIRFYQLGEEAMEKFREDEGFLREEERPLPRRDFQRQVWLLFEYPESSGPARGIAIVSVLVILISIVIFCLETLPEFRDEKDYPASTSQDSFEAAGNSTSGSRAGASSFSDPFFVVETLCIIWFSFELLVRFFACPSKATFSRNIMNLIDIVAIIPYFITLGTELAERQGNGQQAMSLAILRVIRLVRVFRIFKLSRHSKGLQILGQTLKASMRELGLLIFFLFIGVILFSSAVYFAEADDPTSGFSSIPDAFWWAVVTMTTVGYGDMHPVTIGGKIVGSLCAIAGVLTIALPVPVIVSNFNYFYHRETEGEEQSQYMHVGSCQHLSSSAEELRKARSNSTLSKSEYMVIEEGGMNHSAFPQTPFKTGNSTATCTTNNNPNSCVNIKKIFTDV

In the case of `CC[C@H](C)[C@@H]1NC(=O)[C@H](CCCNC(=N)N)NC(=O)[C@@H](N)CSSC[C@@H]2NC(=O)[C@@H]3CSSC[C@@H](C(=O)N[C@H](C(=O)O)C(C)C)NC(=O)[C@H](CCCCN)NC(=O)[C@H](CC(N)=O)NC(=O)[C@H](Cc4ccccc4)NC(=O)[C@H](CCCNC(=N)N)NC(=O)[C@H](CC(N)=O)NC(=O)[C@H](CSSC[C@H](NC(=O)[C@H](CCCCN)NC(=O)[C@H](CCC(N)=O)NC(=O)[C@H](CC(N)=O)NC(=O)[C@@H]4C[C@@H](O)CN4C1=O)C(=O)N[C@@H](Cc1ccccc1)C(=O)N[C@@H](CCC(N)=O)C(=O)N[C@@H](Cc1c[nH]cn1)C(=O)N[C@@H](CC(C)C)C(=O)N[C@@H](CC(=O)O)C(=O)N[C@@H](CC(=O)O)C(=O)N3)NC(=O)[C@H](CCCCN)NC(=O)[C@H](CCCNC(=N)N)NC(=O)[C@H](CO)NC2=O` [κ-PVIIA, kappa-conotoxin PVIIA] (H-CRI[Hyp]NQKCFQHLDDCCSRKCNRFNKCV-OH; disulfide 1-16, 8-20, 15-26), the “change in intracellular K+ concentration (PBFI)” value [1] is listed as “reduction”, the “effects on Kv1.3” value (Kv1.3) is listed as “no effects” and the “effect of F425G Shaker mutation on toxin affinity / sensitivity” value (F425G Shaker mutation) is listed as “abolishes”. For the same compound, the “change in intracellular calcium (Fluo-3 fluorescence)” value [2] was −2.15±0.95% and −8.8±3.9%, the “effect on intracellular calcium (Fluo-3)” value [2] was “significant reduction” and the “initial glutamate-induced depolarization (current-clamp)” value [3] was “prevents the initial glutamate-induced depolarization”. The “activity on Kv1.4” value (Kv1.4) was “no detectable activity”, the “protection against hypoxia-induced depolarization” value [4] was “prevented any hypoxia-induced changes in membrane potential; also recorded: strong protective effect; also recorded: confers protection” and the “relaxation of histamine-contracted tracheal segments” value [5] was “able to relax”. The “protection against hypoxia (intracellular calcium, fluo-3)” value (cortex) was “able to provide protection against hypoxia”, the “current corrected for cell capacitance” value [6] was 2.4±0.7 pA/pf and the current evoked [6] was 26.2±6.2 pA. For the same compound, the “reversal potential of the evoked current” value [6] was ~−20 mV, the “protection against hypoxia-induced changes in membrane potential (current-clamp)” value [7] was “A similar result” and the “activity on Kv1.1” value (Kv1.1) was “no detectable activity; also recorded: no effects”. The “protease activity (cytotoxicity)” value [8] was “no detectable protease activity”, the “effect on blood pressure” value [9] was “no effect” and the “effect on heart rate” value [9] was “no effect”. For the same compound, the “current corrected for cell capacitance” value (cardiac myocytes) was 4.6±0.4 pA/pf, the current evoked (cardiac myocytes) was 87.7±5.9 pA and the induction of currents (cardiac myocytes) was “induces glibenclamide-sensitive currents”. The “degree of glutamate-induced excitotoxicity” value (cortical cells) was “effectively reduces the degree of glutamate-induced excitotoxicity in a dose-dependant manner”, the “protection against delayed cytotoxic effects of glutamate” value (cortical cells) was “very effective protection” and the “block / inhibition of the Shaker channel” value [10] was “block”. For the same compound, the “protection against hypoxia (intracellular calcium, fluo-3)” value (trachea) was “able to provide protection against hypoxia”, the EC50 [11] was 0.0008 pM and the EC50 [12] was 0.0009 pM. For the same compound, the “protection against hypoxia (intracellular calcium, fluo-3)” value [13] was “able to provide protection against hypoxia”.
